Assay results taken from patent US9579319B2 (Redx Pharma PLC, priority 2013, dated 2017).

Test system: Hedgehog signalling pathway
Assay: Gli-reporter NIH3T3 luciferase assay (Hedgehog pathway inhibition)
Assay type: cell-based
Details: NIH3T3; Gli-reporter NIH-3T3 cells, recombinant mouse sonic hedgehog, 24 hours, luminescence; read-out: Gli luc IC50
Outline: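 Mouse NIH3T3 cells with Gli-responsive luciferase reporter, pre-treated 1 h with compound (top final concentration 1 μM, 0.1% DMSO) in 0.5% calf serum medium. Then stimulated with recombinant mouse sonic hedgehog for 24 h at 37° C. Luminescence read-out (OneGLO), triplicates; IC50 reported.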

Structure (SMILES)	IC50
Cc1cc(-c2nnc(N3CCC(NCc4ccc(F)cc4C(F)(F)F)CC3)c(C)c2C)ccn1 [Example 122, 1-[4,5-dimethyl-6-(2-methyl-4-pyridyl)pyridazin-3-yl]-N-[[4-fluoro-2-(trifluoromethyl)phenyl]methyl]piperidin-4-amine]	> 200 nM
Cc1c(-c2ccncc2)nnc(N2CCC(NCc3ccc(F)cc3C(F)(F)F)CC2)c1C [Example 123, 1-[4,5-dimethyl-6-(4-pyridyl)pyridazin-3-yl]-N-[[4-fluoro-2-(trifluoromethyl)phenyl]methyl]piperidin-4-amine]	10 to 200 nM
CN(C1CCN(c2nnc(-c3ccnn3C)c3c2CCC3)CC1)S(=O)(=O)c1ccc(F)cc1C(F)(F)F [Example 124, 4-fluoro-N-methyl-N-[1-[1-(2-methylpyrazol-3-yl)-6,7-dihydro-5H-cyclopenta[d]pyridazin-4-yl]-4-piperidyl]-2-(trifluoromethyl)benzenesulfonamide]	10 to 200 nM
Cn1nccc1-c1nnc(N2CCC(NCc3ccc(F)c(C#N)c3)CC2)c2c1CCC2 [Example 128, 2-fluoro-5-[[[1-[1-(2-methylpyrazol-3-yl)-6,7-dihydro-5H-cyclopenta[d]pyridazin-4-yl]-4-piperidyl]amino]methyl]benzonitrile]	> 200 nM
CN(Cc1ccc(F)cc1C(F)(F)F)C1CCN(c2nnc(-c3ccnn3C)c3ncccc23)CC1 [Example 130, N-[[4-fluoro-2-(trifluoromethyl)phenyl]methyl]-N-methyl-1-[8-(2-methylpyrazol-3-yl)pyrido[2,3-d]pyridazin-5-yl]piperidin-4-amine]	> 200 nM
CN(Cc1cccc(C#N)c1)C1CCN(c2nnc(-c3ccnn3C)c3c2CCC3)CC1 [Example 131, 3-[[methyl-[1-[1-(2-methylpyrazol-3-yl)-6,7-dihydro-5H-cyclopenta[d]pyridazin-4-yl]-4-piperidyl]amino]methyl]benzonitrile]	10 to 200 nM
CN(Cc1ccc(F)cc1C(F)(F)F)C1CCN(c2nnc(-c3ccnn3C)c3c2CCC3)CC1 [Example 132, N-[[4-fluoro-2-(trifluoromethyl)phenyl]methyl]-N-methyl-1-[1-(2-methylpyrazol-3-yl)-6,7-dihydro-5H-cyclopenta[d]pyridazin-4-yl]piperidin-4-amine]	10 to 200 nM
CN(C1CCN(c2nnc(-c3ccnn3C)c3cccnc23)CC1)S(=O)(=O)c1ccc(F)cc1C(F)(F)F [Example 134, 4-fluoro-N-methyl-N-[1-[5-(2-methylpyrazol-3-yl)pyrido[2,3-d]pyridazin-8-yl]-4-piperidyl]-2-(trifluoromethyl)benzenesulfonamide]	10 to 200 nM

Further lines, results first:

IC50	Structure (SMILES)
< 10 nM	CN(C(=O)Nc1ccc(F)cc1C(F)(F)F)C1CCN(c2nnc(-c3ccnn3C)c3c2CCC3)CC1 [Example 125, 3-[4-fluoro-2-(trifluoromethyl)phenyl]-1-methyl-1-[1-[1-(2-methylpyrazol-3-yl)-6,7-dihydro-5H-cyclopenta[d]pyridazin-4-yl]-4-piperidyl]urea]
10 to 200 nM	Cc1c(-c2ccnn2C)nnc(N2CCC(N(C)C(=O)Nc3ccccc3F)CC2)c1C [Example 126, 1-[1-[4,5-dimethyl-6-(2-methylpyrazol-3-yl)pyridazin-3-yl]-4-piperidyl]-3-(2-fluorophenyl)-1-methyl-urea]
> 200 nM	Cc1c(-c2ccnn2C)nnc(N2CCC(N(C)C(=O)Nc3ccc(F)cc3F)CC2)c1C [Example 127, 3-(2,4-difluorophenyl)-1-[1-[4,5-dimethyl-6-(2-methylpyrazol-3-yl)pyridazin-3-yl]-4-piperidyl]-1-methyl-urea]
> 200 nM	CN(C(=O)NC(C)(C)C)C1CCN(c2nnc(-c3ccnn3C)c3ncccc23)CC1 [Example 129, 3-tert-butyl-1-methyl-1-[1-[8-(2-methylpyrazol-3-yl)pyrido[2,3-d]pyridazin-5-yl]-4-piperidyl]urea]
10 to 200 nM	CN(C(=O)NC(C)(C)C)C1CCN(c2nnc(-c3ccnn3C)c3c2CCC3)CC1 [Example 133, 3-tert-butyl-1-methyl-1-[1-[1-(2-methylpyrazol-3-yl)-6,7-dihydro-5H-cyclopenta[d]pyridazin-4-yl]-4-piperidyl]urea]
